Patent US20060009433A1, “Neuroprotective spirostenol pharmaceutical compositions” (priority 2003, published 2006)
Entries after “also recorded” stand apart in the source; their conditions may differ.

Columns and labels:
[1] = system: P19 cells; assay: Neuronal and glial markers in differentiated P19 cells (immunocytochemistry); assay type: cell-based, mouse
Description: (§1) Mouse embryonic teratocarcinoma P19 cells were cultured at 37° C. in […] in Alpha Minimum Essential medium with ribonucleosides and deoxyribonucleosides containing bovine calf serum (7.5%) and fetal bovine serum (2.5%) on 13 mm diameter glass cover-slip. PC12 cells (rat pheochromocytoma neurons) were cultured at 37° C. and 5% CO2 in RPMI 1640 medium devoid of glutamine and supplemented with 10% fetal bovine serum and 5% horse serum on 13 mm diameter glass cover-slip. When cells reached 70% confluence, the medium was replaced fresh medium containing 90 μM SP-224. P19 and PC12 cells were then incubated for 2 days before SP224 was washed out and replaced by standard medium. The culture medium was changed every 2 days for 5 days or every 2 days for 30 days before cells were fixed for immunocytochemistry. The NT2 cells were treated for 5 days and washed-out for 10 days.
P19 cells were fixed with methanol at −20° C. for 15 minutes before being permeabilized for 30 minutes at room temperature with 1×PBS pH=7.4 containing 0.1% Triton 100×. Cell were incubated for 24 hours at 4° C. with antibodies raised against GAP43 (1/1000), DCX (1/3000), βIII Tubulin (1/500), synaptophysin (1/200), MAP2 (1/500), ChAT (1/2000), GFAP (1/1000) or CNPase (1/250). […] Cells nucleus was counterstained using DAPI or ethidium bromide.
The ability of SP-224 to induce the neuronal differentiation of the P19 cells was assessed as follows. P19 cells were treated for 2 days followed by a 5 days wash out period (FIG. 26). The neuronal markers expression was also studied after 28 days (FIG. 27) in order to in order to verify whether the expression observed at 5 days was temporary or permanent. No neuronal marker was observed on the control except for the synaptophysin for which the staining was, however, very weak (FIG. 26C). […] After 28 days of wash out the neuronal differentiation is even more important.

[2] = system: NT2 human neuronal cells; assay: Neurites-like sprouting in NT2 cells; assay type: cell-based; settings: 90 μM, 5 days, then 10 days wash-out
Description: as §1
(§2) The above-referenced cell lines were used because they have been extensively used as a model of neuronal differentiation (Houldsworth et al., 2002; Chou et al., 2003; Das et al., 2004). To induce the sprouting, cells were plated in 6-well plates and treated for 2 days (P19) or 5 days (PC12 and NT2) with 90 μM SP-224 before being washed with fresh medium and cultured for 5 (P19) or 10 (PC12 and NT2) more days. […] Meantime, we observed a growth arrest of the treated-cells. […]

[3] = system: neural stem cells in the sub-ventricular zone (SVZ) of the rat brain; assay: In vivo i.c.v. infusion, neural stem cells of the SVZ (BrdU, DCX immunohistochemistry)
Description: Male Long-Evans rats weighing 300-325 g (3-4 months old) were housed following a natural day-night cycle with food and water ad libitum. Prior to surgery, rats were anesthetized with equithesin (3 ml/kg, i.p.) and then placed on a stereotaxic frame. Using an electrode micromanipulator, the outlet of an osmotic micropump was implanted into the left cerebral ventricle following the coordinates D=3.4 mm, L=1.4 mm and AP=0.92 mm caudal to bregma. The tank of the osmotic pump was implanted in a subcutaneous pocket in the midscapular area of the back of the rat. After surgery, rats were placed on a heating blanket for recovery. During the whole procedure, the body temperature was monitored and kept stable at 37° C. SP-224 at 375 μM solubilized in polypropylene glycol/glycerol/distilled water (50/25/25) was perfused by i.c.v. route at 5 μl per hour for 2 weeks. Rats were sacrificed 3 weeks after the end of the brain infusion by intracardiac perfusion, first with a washing solution (NaCl 8 g/l, dextrose 4 g/l, sucrose 8 g/l, calcium chloride 0.23 g/l, sodium cacodylate anhydrous 0.25 g/l, in deionized water) and then with fixative cacodylate buffer (sucrose 40 g/l, paraformaldehyde 40 g/l, sodium cacodylate anhydrous 10.72 g/l, in deionized water). Brains were stored in fixative cacodylate buffer for an additional week before being embedded in paraffin. To study the neural stem cells proliferation rats were daily injected with a BrdU solution at 100 mg/kg. The first injection took place the day following the surgery and the last injection was performed the day previous to the euthanasia.
Brains were embedded in a paraffin block […] and cut into 20-μm thick slices.
This experiment was conducted to validate the results obtained in vitro and to assess the ability of the SP-224 to induce a neuronal differentiation of the neural stem cells present in the sub-ventricular zone (SVZ) of the rat brain. The SP-224 was administered in a solution at 375 μM by intra-cerebroventricular route for 2 weeks, corresponding to a total quantity of […] of SP-224 per rat. […]

[4] = system: PC12 rat pheochromocytoma cells; assay: Neurites-like sprouting in PC12 cells; assay type: cell-based; settings: 90 μM, then wash-out
Description: as §1, §2

[5] = system: Mouse embryonic teratocarcinoma P19 cells; assay: Neurites-like sprouting in P19 cells; assay type: cell-based; settings: 90 μM, 2 days, then 5 days wash-out
Description: as §1, §2

[6] = 2 days treatment, 28-30 days wash out
[7] = 375 μM i.c.v., 5 μl per hour for 2 weeks, sacrifice 3 weeks later

CC1CCC2(NC1)OC1CC3C4CC=C5CC(O)CCC5(C)C4CCC3(C)C1C2C [SP224, (20α)-25ζ-methyl-(22R,26)-azacyclofurost-5-en-3ζ-ol]
astrocyte marker GFAP / differentiation into astrocytes ([1]; 90 μM 2 days, 5 days SP-224 free medium): no positive GFAP signal was detected; also recorded: did not trigger the differentiation of the P19 cells into astrocytes
expression of ChAT ([1]; 90 μM 2 days, 5 days wash out): strong expression
expression of MAP2 ([1]; 90 μM 2 days, 5 days wash out): strong expression
expression of migrating neuroblasts marker DCX ([1]; 90 μM 2 days, 5 days wash out): strongly expressed
expression of synaptophysin ([1]; 90 μM 2 days, 5 days wash out): strong expression
expression of βIII tubulin ([1]; 90 μM 2 days, 5 days wash out): strong expression
network of axons and dendrites (βIII tubulin staining) [1, 6]: dramatically extended
synaptophysin labeling [1, 6]: established synaptic connections
sprouting of NT2 cells [2]: significant sprouting
toxic effect on the brain tissue ([3]; 375 μM i.c.v. for 2 weeks): without any apparent toxic effect on the brain tissue
BrdU immunostaining, neural stem cell self-renewal/proliferation in the SVZ [3, 7]: able to induce a self-renewal of the neural stem cells in the SVZ; also recorded: dramatic increase of the BrdU
expression of early neuronal marker DCX in the SVZ cells [3, 7]: induced the expression of the early neuronal marker DCX
sprouting of PC12 cells [4]: significant sprouting
sprouting of P19 cells [5]: significant sprouting
